Where only a bound is given, the exact number is not on record here.

In experiment [1] the test system is C. glutomicum strain derived from ATCC 13032 by evolutionary engineering. Kind of experiment: Metabolic activity after NH4-oAB and Na-oAB addition, batch cultivation in 1 L bioreactors (Example 2). Format: cell-based, Corynebacterium glutomicum. The settings on record: 40 mL of 500 g/L oAB stock solution added at 7 h and 24 h; FIG. 2. On the procedure:
Both bioreactors: addition of 36 g/L glucose (added as stock solution) after 7.5 h and 24.5 h to prevent a glucose limitation.
A C. glutomicum strain derived from ATCC 13032 was used to compare the metabolic activity after NH4-oAB and Na-oAB addition during the cultivation. This strain was derived from Corynebacterium glutomicum ATCC 13032 by evolutionary engineering in order to increase its resistance against oAB. It was not further genetically modified. Thus it was not capable of oAB-production.

For a further experiment, the system named is C. glutomicum ATCC 13032. Kind of experiment: Metabolic activity after NH4-oAB and Na-oAB addition, batch cultivation in 1 L bioreactors (Example 3, FIG. 3). Format: cell-based. The note with it: for biomass accumulation after addition: 40 mL of 500 g/L oAB stock solution added after 6.4 h and 23.6 h, FIG. 3. From the text: From this it follows that the toxicity of oAB on C. glutomicum ATCC 13032 in presence of high sodium concentrations is reduced as compared to the toxicity in presence of high ammonium concentrations.

The subject of experiment [2] is modified C. glutamicum production strain. The note with it: for decrease of OTR signal after addition: 292 mmol salt (70 mL stock solution) added after 64 h, Na-oAB added before (4 x 20 mL of 500 g/L); for final dry weight concentration: after a cultivation time of 91 hours, salt added after 64 h in the presence of oAB.
The test system of experiment [3] is modified C. glutaomicum production strain. Kind of experiment: Evaluation of the maximum tolerable oAB concentration, batch cultivation in 1 L bioreactor (Example 1). It is filed as cell-based, Corynebacterium glutaomicum. Here is the method:
FIG. 1: Evaluation of the maximum tolerable oAB concentration during batch cultivation in a 1 L lab-scale bioreactor with a modified C. glutaomicum production strain.
The maximum tolerable oAB concentration in the presence of sodium ions in the medium was tested with a modified C. glutaomicum production strain. This strain was derived from Corynebacterium glutaomicum ATCC 13032 by evolutionary engineering in order to increase its resistance against oAB. This strain was then genetically modified to make it capable of oAB-production and comprised the following modifications. The incorporated modifications have the effect of reduced expression of the trpD gene, encoding anthranilate phosphoribosyl transferase, knock out of gene ppc, encoding PEP Carboxylase, constitutive overexpression of heterologous aroG^D146N and trpEG^540F genes from E. coli, encoding feedback resistant DAHP synthase and anthranilate synthase, respectively, constitutive overexpression of the gene aroL from E. coli, encoding shikimate kinase.
Glucose was added as stock solution after 40 h, 48 h, 63 h, 65 and 71.5 h to prevent a glucose limitation.

As for `N.Nc1ccccc1C(=O)O` [NH4-oAB], in experiment [1], the “OTR signal after addition” value is recorded as “constant OTR signal” and the “biomass concentration after addition” value is on record as “reduced biomass accumulation”. Also, the “biomass accumulation after addition” value in the experiment on C. glutomicum ATCC 13032 was “growth inhibition after 24 h”. The “o-aminobenzoate concentration at which cell growth (dry weight) stops” value in the experiment with C. glutomicum ATCC 13032 (according to FIG. 3) is more than 50 g/L. Besides, the “o-aminobenzoate concentration at which the metabolic activity of bacterial cells (OTR) is limited” value with C. glutomicum ATCC 13032 (according to FIG. 3, concentration not including the mass of the cation) was “more than 25 g/L”.

With `Cl.N` [NH4Cl], in experiment [2], the “decrease of OTR signal after addition” value was “about 20%” and the “final dry weight concentration” value came to 6.8 g/L.

Regarding `Nc1ccccc1C(=O)[O-].[Na+]` [Na-oAB], in experiment [1], the “OTR signal after addition” value is “continued to increase” and the “biomass concentration after addition” value is given as “continued to increase”. Also, the “biomass accumulation after addition” value in the experiment with C. glutomicum ATCC 13032 is “biomass accumulation continued”.

With `[Cl-].[Na+]` [NaCl], in experiment [2], the “decrease of OTR signal after addition” value is “no effect” and the “final dry weight concentration” value was found to be 7.8 g/L.

For the molecule `Nc1ccccc1C(=O)O` [oAB, 2-aminobenzoic acid], the “oAB concentration at which an increase in biomass concentration was still observed” value in experiment [3] (oAB added stepwise as sodium salt (dissolved with NaOH at pH 7), pH 7 controlled with NH4OH, 30° C.) came out at 80 g/L. Moreover, the “oAB concentration resulting in a decrease of the metabolic activity (declining OTR signal) and no further increase in biomass” value in experiment [3] (oAB increased from 80 g/L after 71 h, added as sodium salt (dissolved with NaOH at pH 7)) was found to be 100 g/L.

(Values after US20200263213A1, “METHODS FOR INCREASING THE TOLERANCE OF MICROBIAL CELLS TOWARDS ANTHRANILIC ACID BY LIMITING THE AMOUNT OF AMMONIA IN THE CULTURE MEDIUM” (priority 2017, published 2020).)
